Assay results from patent US6737383B1, “Herbicidal oxadiazolidines” (priority 1999, dated 2004).

Experiments:
[1] = tested on: common pursiane; test: Test D common purslane; assay type: in vivo, Portulaca oleracea; details: Postemergence, 0 to 100 scale
[2] = tested on: Johnson grass; test: Test D Johnson grass; assay type: in vivo, Sorghum halepense; details: Postemergence, 0 to 100 scale
[3] = tested on: Green foxtail; test: Test D green foxtail; assay type: in vivo; details: Postemergence, 0 to 100 scale, 0 no injury, 100 complete control
[4] = tested on: bermuda-grass; test: Test D bermudagrass; assay type: in vivo, Cynodon dactylon; details: Postemergence, 0 to 100 scale
[5] = tested on: Green foxtail; test: Test D green foxtail; assay type: in vivo; details: Postemergence, 0 to 100 scale, 0 no injury, 100 complete control; remark: listed apart in the source
[6] = tested on: spring wheat; test: Test E spring wheat; assay type: in vivo, Triticum aestivum; details: Preemergence
[7] = tested on: cotton; test: Test C postemergence cotton; assay type: in vivo, Gossypium hirsutum; details: 0 to 100 scale, 0 no effect, 100 complete control
Protocol: (§1) Compounds evaluated in this test were formulated in a non-phytotoxic solvent mixture which included a surfactant and applied to plants that were grown for various periods of time before treatment (postemergence application). A mixture of sandy loam soil and greenhouse potting mix in a 60:40 ratio was used for the postemergence test.
(§2) Plantings of these crops and weed species were adjusted to produce plants of appropriate size for the postemergence test. All plant species were grown using normal greenhouse practices. Crop and weed species include arrowleaf sida (Sida rhombifolia), barnyardgrass (Echinochloa crus-galli), cocklebur (Xanthium strumarium), common ragweed (Ambrosia elatior), corn (Zea mays), cotton (Gossypium hirsutum), eastern black nightshade (Solanum ptycanthum), fall panicum (Panicum dichotomiflorum), field bindweed (Convolvulus arvensis), giant foxtail (Setaria faberii), hairy beggarticks (Bidens pilosa), ivyleaf morningglory (Ipomoea hederacea), johnsongrass (Sorghum halepense), ladysthumb smartweed (Polygonum persicaria), lambsquarters (Chenopodium album), large crabgrass (Digitaria sanguinalis), purple nutsedge (Cyperus rotundus), redroot pigweed (Amaranthus retroflexus), soybean (Glycine max), surinam grass (Brachiaria decumbens), velvetleaf (Abutilon theophrasti) and wild poinsettia (Euphorbia heterophylla).
(§3) Treated plants and untreated controls were maintained in a greenhouse for approximately 14, to 21 days, after which all treated plants were compared to untreated controls and visually evaluated. Plant response ratings, summarized in Table C, were based upon a 0 to 100 scale where 0 was no effect and 100 was complete control. A dash response (−) means no test result.

[8] = tested on: johnsongrass; test: Test C postemergence johnsongrass; assay type: in vivo, Sorghum halepense; details: 0 to 100 scale, 0 no effect, 100 complete control
Protocol: as §1, §2, §3

[9] = tested on: wild buckwheat; test: Test E wild buckwheat; assay type: in vivo, Polygonum convolvulus; details: Preemergence
[10] = tested on: sugar beet; test: Test E sugar beet; assay type: in vivo, Beta vulgaris; details: Postemergence
Protocol: Compounds evaluated in this test were formulated in a non-phytotoxic solvent mixture which included a surfactant and applied to plants that were in the 1- to 4-leaf stage (postemergence application). A mixture of sandy loam soil and greenhouse potting mix in a 60:40 ratio was used for the postemergence test.
Plantings of these crops and weed species were adjusted to produce plants of appropriate size for the postemergence test. All plant species were grown using normal greenhouse practices. Crop and weed species include annual bluegrass (Poa annua), blackgrass (Alopecurus myosuroides), black nightshade (Solanum nigra), chickweed (Stellaria media), common poppy (Papaver rhoeas), deadnettle (Lamium amplexicaule), downy brome (Bromus tectorum), field violet (Viola arvensis), galium (Galium aparine), green foxtail (Setaria viridis), Italian ryegrass (Lolium multiflorum), jointed goatgrass (Aegilops cylindrica), kochia (Kochia scoparia), lambsquarters (Chenopodium album), littleseed canarygrass (Phalaris minor), rape (Brassica napus), redroot pigweed (Amaranthus retroflexus), Russian thistle (Salsola kali), scentless chamomile (Matricaria inodora), spring barley (Hordeum vulgare), sugar beet (Beta vulgaris), sunflower (Helianthus annuus), ivyleaf speedwell (Veronica hederaefolia), spring wheat (Triticum aestivum), winter wheat (Triticum aestivum), wild buckwheat (Polygonum convolvulus), wild mustard (Sinapis arvensis), wild oat (Avena fatua), windgrass (Apera spica-venti) and winter barley (Hordeum vulgare).
Treated plants and untreated controls were maintained in a greenhouse for approximately 21 to 28 days, after which all treated plants were compared to untreated controls and visually evaluated. […] A dash response (-) means no test result.

[11] = tested on: deadnettle; test: Test E deadnettle; assay type: in vivo, Lamium amplexicaule; details: Preemergence
[12] = tested on: fall panicum; test: Test C postemergence fall panicum; assay type: in vivo, Panicum dichotomiflorum; details: 0 to 100 scale, 0 no effect, 100 complete control
How it was run: (§4)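 Compounds in a non-phytotoxic solvent with surfactant were sprayed postemergence on greenhouse-grown plants in 60:40 sandy loam/potting mix. After about 14 to 21 days, visual ratings against untreated controls on a 0 (no effect) to 100 (complete control) scale.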

[13] = tested on: barnyardgrass; test: Test C postemergence barnyardgrass; assay type: in vivo, Echinochloa crus-galli; details: 0 to 100 scale, 0 no effect, 100 complete control
How it was run: as §4

[14] = tested on: spring wheat; test: Test E spring wheat; assay type: in vivo, Triticum aestivum; details: Postemergence
How it was run: (§5)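 Postemergence: 60:40 sandy loam/greenhouse potting mix, 1- to 4-leaf stage. Formulation: solvent plus surfactant. Assessment: visual comparison with untreated controls at ~21–28 days.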

[15] = tested on: giant foxtail; test: Test C postemergence giant foxtail; assay type: in vivo, Setaria faberii; details: 0 to 100 scale, 0 no effect, 100 complete control
Protocol: as §1, §2, §3

[16] = tested on: scentless chamomile; test: Test E scentless chamomile; assay type: in vivo, Matricaria inodora; details: Postemergence
How it was run: as §5

[17] = Rate 16 g/ha, 0 no injury, 100 complete control
[18] = Rate 32 g/ha, 0 no injury, 100 complete control
[19] = Rate 64 g/ha, 0 no injury, 100 complete control
[20] = Rate 125 g/ha, 0 no injury, 100 complete control
[21] = Rate 125 g/ha, 0 to 100 scale (0 no effect, 100 complete control)
[22] = Rate 250 g/ha, 0 to 100 scale where 0 is no effect and 100 is complete control

CC(C)N(C(=O)n1oc(=O)n(C2CCCCCC2)c1=O)c1ccc(F)cc1F [Compound 342]
Plant response rating, C. purslane [1, 17]: 0
Plant response rating, C. purslane [1, 18]: 0
Plant response rating, C. purslane [1, 19]: 0
Plant response rating, C. purslane [1, 20]: 0
Plant response rating, C. purslane ([1]; Rate 250 g/ha): 0
Plant response rating, Johnsongrass [2, 17]: 0
Plant response rating, Johnsongrass [2, 18]: 0
Plant response rating, Johnsongrass [2, 19]: 0
Plant response rating, Johnsongrass [2, 20]: 0
Plant response rating, Johnsongrass ([2]; Rate 250 g/ha): 0
Plant response rating, Green foxtail ([3]; Rate 16 g/ha): 0
Plant response rating, Green foxtail ([3]; Rate 32 g/ha): 0
Plant response rating, Bermudagrass [4, 17]: 20
Plant response rating, Bermudagrass [4, 18]: 30
Plant response rating, Bermudagrass [4, 19]: 90
Plant response rating, Bermudagrass [4, 20]: 100
Plant response rating, Bermudagrass ([4]; Rate 250 g/ha): 100
Green foxtail plant response rating ([5]; Rate 64 g/ha): 0
Green foxtail plant response rating ([5]; Rate 125 g/ha): 60

CC(C)N(C(=O)n1oc(=O)n(C)c1=O)c1ccc(F)cc1 [Compound 138]
Plant response rating, Spring Wheat [6, 21]: 55
Spring Wheat plant response rating (0 to 100 scale) ([6]; Rate 250 g/ha): 100
Plant response rating Cotton ([7]; Rate 140 g/ha): 5
Plant response rating Cotton ([7]; Rate 280 g/ha): 30
Plant response rating Cotton ([7]; Rate 560 g/ha): 40
Plant response rating Cotton ([7]; Rate 1120 g/ha): 70
Plant response rating, Johnsongrass ([8]; Rate 140 g/ha): 0
Plant response rating, Johnsongrass ([8]; Rate 280 g/ha): 20
Plant response rating, Johnsongrass ([8]; Rate 560 g/ha): 60
Plant response rating, Johnsongrass ([8]; Rate 1120 g/ha): 90
Plant response rating, Wild buckwheat [9, 21]: 50
Wild buckwheat plant response rating (0 to 100 scale) ([9]; Rate 250 g/ha): 100
Plant response rating, Sugar beet ([10]; Rate 125 g/ha, 0 to 100 scale): 30
Sugar beet plant response rating [10, 22]: 10
Plant response rating, Deadnettle [11, 21]: 65
Deadnettle plant response rating (0 to 100 scale) ([11]; Rate 250 g/ha): 70
Plant response rating Fall panicum ([12]; Rate 140 g/ha): 0
Plant response rating Fall panicum ([12]; Rate 280 g/ha): 0
Plant response rating Fall panicum ([12]; Rate 560 g/ha): 60
Plant response rating Fall panicum ([12]; Rate 1120 g/ha): 90
Plant response rating, Barnyardgrass ([13]; Rate 140 g/ha): 40
Plant response rating, Barnyardgrass ([13]; Rate 280 g/ha): 70
Plant response rating, Barnyardgrass ([13]; Rate 560 g/ha): 85
Plant response rating, Barnyardgrass ([13]; Rate 1120 g/ha): 85
Plant response rating, Spring Wheat ([14]; Rate 125 g/ha, 0 to 100 scale): 0
Spring Wheat plant response rating [14, 22]: 0
Plant response rating, Giant foxtail ([15]; Rate 140 g/ha): 0
Plant response rating, Giant foxtail ([15]; Rate 280 g/ha): 15
Plant response rating, Giant foxtail ([15]; Rate 560 g/ha): 80
Plant response rating, Giant foxtail ([15]; Rate 1120 g/ha): 85
Plant response rating, Scentless chamo ([16]; Rate 125 g/ha, 0 to 100 scale): 20
Scentless chamo plant response rating [16, 22]: 0
